Laboratory results as given in patent publication US6649647B1, “Trioxane derivatives” (priority 1998, dated 2003).

Key:
Assay type in all cases: cell-based
[1] = tested on: human colon cancer cell line HT 29; experiment: Growth inhibition assay (MTT), HT 29; settings: Table VI, 6 days incubation
Protocol: (§1) As another example of evaluation of cytotoxicity, cancer cell lines were also used for a growth inhibition assay. The human colon cancer cell lines SW 480 and HT 29 and the murine melanoma cell line B16F10 were used. […] After confluent growth, the cells were trypsinated and resuspended in RPMI plus 10% FCS to a cell concentration of 50000 cells per ml in case of colon cancer cell lines and 20000 in case of B16F10. 100 μl of this cell suspension were transferred in each well of a 96 well microtiter plate and incubated for 1 day at 37° C. in a CO2-incubator. Subsequently, further 100 μl RPMI medium and 1 μl of a DMSO solution, containing the artemisinin derivatives were added. The growth inhibition was estimated after 6 days incubation at 36° C. using the MTT assay.
(§2) 25 μl MTT solution (3-(4,5-dimethylthiazol-2-yl)-2,5-diphenyltetrazolium-bromid) of a starting concentration of 5 mg/ml H2O were added and incubated at 37° C. for 5 h. Subsequently, 100 μl iso-propanol per well were added. After 15 min incubation 100 μl H2O were added. After 30 min shaking, the extinction was measured at 595 nm using a ELISA-Multiplate Reader.

[2] = tested on: murine melanoma cell line B16F10; experiment: Growth inhibition assay (MTT), B16F10; settings: Table VI, 6 days incubation
Protocol: as §1, §2

[3] = tested on: human colon cancer cell line SW 480; experiment: Growth inhibition assay (MTT), SW 480; settings: Table VI, 6 days incubation
Protocol: as §1, §2

[4] = tested on: Rat 6 subclone of the immortalized F2408 embryo cell line (R6); experiment: Screening for cytotoxicity, cell count by Coulter Counter, R6 cells; settings: for LD50 (Day 3) R6: day 3 after addition; for LD50 (Day 6) R6: day 6 after addition
Protocol: (§3) Compounds of the invention were screened against Rat 6 subclone of the immortalized F2408 embryo cell line, and Rat 6 (R6T24) cells transfected and transformed by a c-H-ras oncogene. The screening involved placing the R6 and R6T24 cell lines plated at 10^3 cells per well into a 12-well microtiter culture plate for 24 hours. The compounds were added at final concentrations from 0.1-100 μM, and cells were trypsized and counted by Coulter Counter at day 3 and day 6 after the addition. Untreated cells were assigned a survival value of 100%.

[5] = tested on: Rat 6 (R6T24) cells transfected and transformed by a c-H-ras oncogene; experiment: Screening for cytotoxicity, cell count by Coulter Counter, R6T24 cells; settings: R6T24 cell line; for LD50 (Day 3) R6T24: day 3 after addition; for LD50 (Day 6) R6T24: day 6 after addition
Protocol: as §3

| Compound | LD50 HT 29 [1] [nM] | LD50 B16F18 [2] [nM] | LD50 SW 480 [3] [nM] | LD50 (Day 3) R6 ([4]; Table V) [µM] | LD50 (Day 6) R6 ([4]; Table V) [µM] | LD50 (Day 3) R6 ([4]; Table VA) [µM] | LD50 (Day 6) R6 ([4]; Table VA) [µM] | LD50 (Day 3) R6T24 ([5]; Table V) [µM] | LD50 (Day 6) R6T24 ([5]; Table V) [µM] | LD50 (Day 3) R6T24 ([5]; Table VA) [µM] | LD50 (Day 6) R6T24 ([5]; Table VA) [µM] |
| --- | --- | --- | --- | --- | --- | --- | --- | --- | --- | --- | --- |
| 10α and β-[(2′-naphthylmethyl)oxy]dihydroartemisinin [Example 13β] | 600 | 400 | 300 |  |  |  |  |  |  |  |  |
| C[C@H]1[C@H](OC(=O)CCC(=O)O)O[C@@H]2O[C@@]3(C)CC[C@H]4[C@H](C)CC[C@@H]1[C@@]24OO3 [Artesunate, artesunate, reference compound] |  |  |  | 2.80 | 2.06 | 2.80 | 2.08 | 1.77 | 1.04 | 1.77 | 1.04 |
| CC1CCC2C(C)C(OCc3cccc4c3ccc3ccccc34)OC3OC4(C)CCC1C32OO4 (centres unmarked) [Example 82] |  |  |  |  |  | 0.12 | 0.12 |  |  | 0.05 | 0.06 |
| C[C@@H]1CC[C@H]2[C@@H](C)C(=O)N(Cc3ccccc3)[C@@H]3O[C@@]4(C)CC[C@@H]1[C@@]23OO4 [Example 88] |  |  |  | 46.67 | 18.49 | 47.0 | 18.49 | 10.45 | 5.24 | 10.45 | 5.24 |
| CCOC(=O)CCC1C(=O)OC2OC3(C)CCC4C(C)CCC1C24OO3 (centres unmarked) [Example 19, 9-[2-(ethoxycarbonyl)ethyl]artemisinin] |  |  |  | 52.00 | 59.00 |  |  | 28.12 | 24.95 |  |  |
| CC1CCC2C(C)C(OC(=O)c3ccc4c(c3)C(=O)c3ccccc3C4=O)OC3OC4(C)CCC1C32OO4 (centres unmarked) [Example 66] |  |  |  | 0.34 | 3.60 | 0.34 | 3.6 | 0.32 | 0.32 | 0.32 | 0.32 |
| C[C@@H]1CC[C@H]2[C@@H](C)C(N3CCN(C)CC3)O[C@@H]3O[C@@]4(C)CC[C@@H]1[C@]32OO4 (some centres unmarked) [Example 51] |  |  |  |  |  | 0.33 | 0.12 |  |  | 0.33 | 0.11 |
| CC1CCC2C(CN(Cc3ccccc3)Cc3ccccc3)C(=O)OC3OC4(C)CCC1C32OO4 (centres unmarked) [Example 17, 9-(N,N-dibenzylaminomethyl)artemisinin] |  |  |  | 1.57 | 2.58 |  |  | 1.81 | 0.54 |  |  |
| CC1CC[C@H]2[C@@H](C)C(=O)NC3O[C@]4(C)CCC1C32OO4 (some centres unmarked) [Example 14, 11-azaartemisinin] |  |  |  | >50.00 | 1.22 | >50 | 1.22 | 0.18 | 0.09 | 0.18 | 0.09 |
| C[C@@H]1CC[C@H]2[C@@H](C)C(NCc3ccccc3)O[C@@H]3O[C@@]4(C)CC[C@@H]1[C@]32OO4 (some centres unmarked) [Example 36] | 400 | 50 | 60 |  |  |  |  |  |  |  |  |
| C[C@@H]1CC[C@H]2[C@@H](C)C(c3ccc4ccccc4c3)O[C@@H]3O[C@@]4(C)CC[C@@H]1[C@]32OO4 (some centres unmarked) [Example 28] | 300 | 300 | 150 |  |  |  |  |  |  |  |  |
| CC[C@@]1(O)C(=O)OCc2c1cc1n(c2=O)Cc2cc3ccccc3nc2-1 [CAMPTOTHECIN, reference compound] | 4 | 30 | 9 |  |  |  |  |  |  |  |  |
| CC1CCC2C(C)C(F)OC3OC4(C)CCC1C32OO4 (stereo not drawn) [Example 1, 10β-fluoro-10-deoxodihydroartemisinin] |  |  |  | 1.18 | 1.63 | 1.28 | 1.62 | 1.93 | 0.61 | 1.93 | 0.61 |
| CC1CCC2[C@@H](C)C(=O)N(Cc3ccccc3)C3O[C@]4(C)CCC1C23O4 (some centres unmarked) [D, reference compound] |  |  |  | >50.00 | >50.00 | >50 | >50 | >50.00 | >50.00 | >50 | >50 |
| CO[C@H]1O[C@@H]2O[C@@]3(C)CC[C@H]4[C@H](C)CC[C@@H]([C@H]1C)[C@@]24OO3 [Artemether, artemether, reference compound] |  |  |  | >100.00 | 1.0 | >100 | 0.6 | >100.00 | 1.8 | >100 | 0.71 |
| Cc1cc(C)c(C2O[C@@H]3O[C@@]4(C)CC[C@H]5[C@H](C)CC[C@@H]([C@H]2C)[C@@]35OO4)cc1C (some centres unmarked) [Example 61] | 300 | 250 | 150 |  |  |  |  |  |  |  |  |
| CC1CCC2C(C)C(OCc3ccc(F)cc3)OC3OC4(C)CCC1C32OO4 (centres unmarked) [Example 79] | 1500 | 200 | 200 |  |  |  |  |  |  |  |  |
| C[C@@H]1CC[C@H]2[C@@H](C)C(OC(=O)c3c4ccccc4nc4ccccc34)O[C@@H]3O[C@@]4(C)CC[C@@H]1[C@]32OO4 (some centres unmarked) [Example 65] |  |  |  | 2.73 | 2.52 |  |  | 3.21 | 1.60 |  |  |
| Cc1cc(C)c(C2O[C@@H]3O[C@@]4(C)CC[C@H]5[C@H](C)CC[C@@H]([C@H]2C)[C@@]35OO4)c(C)c1 (some centres unmarked) [Example 60] | 300 | 250 | 150 |  |  |  |  |  |  |  |  |
| COc1cc(OC)c(C2O[C@@H]3O[C@@]4(C)CC[C@H]5[C@H](C)CC[C@@H]([C@H]2C)[C@@]35OO4)c(OC)c1 (some centres unmarked) [Example 59] | 1500 | 1500 | 1500 |  |  |  |  |  |  |  |  |
| CC1CCC2C(C)C(OCc3cccc(F)c3)OC3OC4(C)CCC1C32OO4 (centres unmarked) [Example 78] | 1500 | 200 | 250 |  |  |  |  |  |  |  |  |
| C[C@@H]1CC[C@H]2[C@@H](C)C(Nc3ccc(Br)cc3)O[C@@H]3O[C@@]4(C)CC[C@@H]1[C@]32OO4 (some centres unmarked) [Example 33] | 500 | 200 | 60 |  |  |  |  |  |  |  |  |
| C[C@@H]1CC[C@H]2[C@@H](C)C(=O)N(Cc3cccc(F)c3)[C@@H]3O[C@@]4(C)CC[C@@H]1[C@@]23OO4 [Example 87] |  |  |  | >50.00 | 17.5 |  |  | 6.14 | 1.07 |  |  |
| C[C@@H]1CC[C@H]2[C@@H](C)C(Nc3ccc(I)cc3)O[C@@H]3O[C@@]4(C)CC[C@@H]1[C@]32OO4 (some centres unmarked) [Example 34] | 500 | 150 | 100 |  |  |  |  |  |  |  |  |
| COc1cc(OC)c(C2OC3OC4(C)CCC5C(C)CCC(C2C)C35OO4)c(OC)c1 (mixture of isomers) [Example 27] |  |  |  | 0.57 | 1.10 | 0.57 | 1.10 | 0.67 | 0.26 | 0.67 | 0.26 |
| C[C@@H]1CC[C@H]2[C@@H](C)C(Nc3ccc(F)cc3)O[C@@H]3O[C@@]4(C)CC[C@@H]1[C@]32OO4 (some centres unmarked) [Example 31] |  |  |  | 0.34 | 0.27 | 0.34 | 0.27 | 0.23 | 0.14 | 0.23 | 0.14 |
| CC1CCC2[C@@H](C)C(=O)OC3O[C@]4(C)CCC1C32OO4 (some centres unmarked) [Artemisinin, artemisinin, reference compound] |  |  |  | >100.00 | 4.08 | >100.00 | 4.08 | 3.09 | 1.75 | 3.49 | 1.75 |
